Results reported in article PMC7979524 (Pharmacological research, 2021).

How the values were obtained:
adenosine A2B receptor = molecular target: T1, adenosine A2B receptor (Homo sapiens, UniProt P29275); format: cell-based
T1 sequence (P29275 1-332): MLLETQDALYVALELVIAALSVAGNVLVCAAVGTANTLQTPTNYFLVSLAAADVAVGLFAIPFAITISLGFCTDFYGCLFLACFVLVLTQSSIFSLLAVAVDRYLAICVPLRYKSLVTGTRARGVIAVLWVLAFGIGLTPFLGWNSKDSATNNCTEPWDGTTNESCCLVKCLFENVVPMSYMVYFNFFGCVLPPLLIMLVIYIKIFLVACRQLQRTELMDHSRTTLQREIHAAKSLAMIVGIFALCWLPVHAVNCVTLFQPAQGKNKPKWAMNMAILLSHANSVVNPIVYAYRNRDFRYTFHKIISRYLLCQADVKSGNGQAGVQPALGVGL

adenosine A2A receptor = adenosine A2A receptor (Homo sapiens, UniProt P29274); format: cell-based
Sequence of adenosine A2A receptor (P29274 whole entry): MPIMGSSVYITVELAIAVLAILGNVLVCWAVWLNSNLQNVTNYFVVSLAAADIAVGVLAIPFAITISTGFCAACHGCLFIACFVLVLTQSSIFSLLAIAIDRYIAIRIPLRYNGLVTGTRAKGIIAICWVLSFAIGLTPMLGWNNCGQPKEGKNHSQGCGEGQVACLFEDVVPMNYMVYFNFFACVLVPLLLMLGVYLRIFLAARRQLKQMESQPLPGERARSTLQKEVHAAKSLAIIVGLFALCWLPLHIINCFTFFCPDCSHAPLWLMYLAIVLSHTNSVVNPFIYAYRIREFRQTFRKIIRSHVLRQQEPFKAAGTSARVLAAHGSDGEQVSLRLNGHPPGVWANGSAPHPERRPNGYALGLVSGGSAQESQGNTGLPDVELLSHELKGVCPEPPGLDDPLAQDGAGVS

Question: How did the Ki (adenosine A2B receptor) turn out when `COc1cc(/C=C\C(=O)CC(=O)/C=C/c2ccc(O)c(OC)c2)ccc1O` [CTCUR, cis-trans curcumin] was run?
Answer: 6.7 µM

Question: And the Ki (adenosine A2A receptor)?
Answer: 5.1 µM
